Data as given in US8039501B2, “Synephrine derivatives useful as anti-inflammatory agents” (Universiteit Gent, priority 2005, dated 2011).

What was measured:
[1] = Serum ELISA of osteoclast and osteoblast markers in DBA/1 mice; conditions: 300 μg daily, 8 days
Text: DBA/1 mice—Male 8- to 12-wk-old DBA/1 mice were purchased from Janvier and housed following institutional guidelines. All animal procedures were approved by the institutional animal care and ethics committee. […] The human IL-6 and IL-8 cytoset were purchased from BioSource International, Inc. For the detection of TRAP5b in DBA/1 mice serum we used the Mouse TRAP Assay, purchased from Immunodiagnostic systems limited. The osteocalcin EIA kit was purchased from Biomedical Technologies, Inc. All assays were performed according to the manufacturer's instructions.

[2] = target: T1, glucocorticoid receptor (GR) (Homo sapiens, UniProt P04150); assay: Western blot of homologous down-regulation of GR in FLS; assay type: cell-based; conditions: 10 μM, 3, 6, 9 or 24 hours, FIG. 22A
T1 construct: endogenous in cells; host or cells: primary fibroblast-like synoviocytes from RA patients
T1 sequence (P04150 1-777): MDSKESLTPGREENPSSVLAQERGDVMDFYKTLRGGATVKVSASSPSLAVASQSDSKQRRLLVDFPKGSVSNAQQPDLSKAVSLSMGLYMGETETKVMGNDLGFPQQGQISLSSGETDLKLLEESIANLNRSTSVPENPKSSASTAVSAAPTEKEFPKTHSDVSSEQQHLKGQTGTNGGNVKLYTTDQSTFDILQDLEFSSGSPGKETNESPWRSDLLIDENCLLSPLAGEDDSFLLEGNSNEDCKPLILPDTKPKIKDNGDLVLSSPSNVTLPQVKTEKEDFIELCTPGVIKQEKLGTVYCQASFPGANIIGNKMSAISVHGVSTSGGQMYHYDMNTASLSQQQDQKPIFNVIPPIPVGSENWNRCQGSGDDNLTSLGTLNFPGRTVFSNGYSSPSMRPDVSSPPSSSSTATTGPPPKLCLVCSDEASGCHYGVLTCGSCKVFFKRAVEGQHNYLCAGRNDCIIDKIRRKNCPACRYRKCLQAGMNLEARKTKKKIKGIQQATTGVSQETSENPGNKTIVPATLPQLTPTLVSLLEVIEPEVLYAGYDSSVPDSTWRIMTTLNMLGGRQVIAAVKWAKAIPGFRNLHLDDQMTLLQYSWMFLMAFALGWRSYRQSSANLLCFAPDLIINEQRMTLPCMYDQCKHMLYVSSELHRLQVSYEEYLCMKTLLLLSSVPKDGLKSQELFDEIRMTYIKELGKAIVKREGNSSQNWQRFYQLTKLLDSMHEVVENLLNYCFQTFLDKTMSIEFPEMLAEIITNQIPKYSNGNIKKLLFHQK
Experimental: (§1) CpdA was synthesized as described previously. […] They were sacrificed and livers were isolated. […] Gene expression of HPRT was used for normalization. […] Gene expression of HPRT was used for normalization. […] Gene expression of HPRT was used for normalization. Statistical significance was determined by one way anova. […] Gene expression of HPRT was used for normalization. […] Gene expression of HPRT was used for normalization. Statistical significance was determined by one way anova. […] Statistical significance was determined with a Kruskal-Wallis test.
Western blot analysis was performed on total protein extracts with an anti-GR(H-300) antibody. The detection of ERK was used as a loading control. After 8 days of treatment liver samples were taken from the PBS, DEX (20 μg) or CpdA (300 μg) treated DBA/1 mice (FIG. 22B). Q-PCR was performed for the detection of GR in the different samples. Statistical significance was determined with a Mann-Whitney Test. FLS were pre-treated with solvent, DEX (1 μM) or CpdA (10 μM) for 1 hour (set-up 1) or 24 hours (set-up 2), as indicated in the figures. Afterwards, TNF (2000 units/ml) was added for 6 h. Western blot analysis was performed on total extracts with an anti-GR(H-300) antibody (FIG. 19A). Detection of ERK was used as a loading control. […] Statistical significance was determined by one way anova. […]

Saos-2 = assay: Q-PCR gene expression in osteosarcoma cell-line Saos-2; assay type: cell-based, human; conditions: 10 μM
Experimental: as §1

[3] = MTT test, cell viability of L929sA fibroblasts; assay type: cell-based, murine; conditions: mouse, L929sA fibroblast cells, read-out: Block of L929sA cell viability
Experimental: The MTT test is a standard assay addressing cell toxicity of a compound. It is based on the principle that after 3-4 hours of cell incubation with MTT (3-(4,5-dimethylthiazole-2-yl)-2,5-diphenyl tetrazolium bromide) so-called purple formazan crystals develop in living and early apoptotic cells. Dead cells don't produce formazan crystals.
Different cell lines were tested. Unless indicated differently, A549 human lung epithelial cells (derived from lung carcinoma) and L929sA murine fibroblast cells were cultured in DMEM with 10% FCS, 100 U/ml penicillin and 100 μg/ml streptomycin. Unless indicated differently, the human multiple myeloma cell lines L363, U266 and MM1.S were cultured in RPMI 1640 with Glutamax-I, supplemented with 10% FCS, 100 U/ml penicillin and 100 μg/ml streptomycin. Cells were seeded at 5000 cells/well (for adherent A549 and L929sA cells) or at 10000 cells/well (for the multiple myeloma lines in suspension) in 96 well plates. Cells were incubated in the presence of the respective synephrine compounds or vehicle (EtOH; for control test) in a final volume of 0.2 ml for 24 or 48 hours at 37° C. Subsequently, 20 μl of MTT solution (5 mg/ml in phosphate-buffered saline) was added to each well. After 4 hours incubation at 37° C., 80 μl of the extraction buffer (10% SDS, 0.01 M HCl) was added. After overnight incubation at room temperature, the optical densities at 590 nm were measured. Results are illustrated in FIGS. 2 to 6 and are expressed as percentage of viable cells as compared to vehicle-treated controls.
In a further MTT test, the activity of the synephrine derivatives on the inhibition of cell viability of non-immune cells was measured. […] Tests were performed for 24 hours and for 48 hours. The results are illustrated by FIGS. 5A and 5B for L929 cells, and by FIGS. 6A and 6B for A549 cells. It was observed that CpdA at 10^−5 M blocked cell viability of L929sA and A549 for not more than 10%.

CNCC(Cl)c1ccc(OC(C)=O)cc1.Cl (stereo not shown) [CpdA, 2-(4-acetoxyphenyl)-2-chloro-N-methyl-ethylammonium chloride]
Amount of active osteoclasts (TRAP5b) in serum ([1]; FIG. 21A): does not alter the amount of active osteoclasts (TRAP5b)
Osteocalcin levels in mouse serum ([1]; FIG. 21B): does not significantly alter the osteocalcin levels in mouse serum
Ligand-induced down-regulation of the glucocorticoid receptor (GR) [2]: does not evoke a ligand-induced down-regulation of the glucocorticoid receptor (GR)
RANKL/OPG ratio (Saos-2; 24 hours): does not alter the RANKL/OPG ratio
Expression of osteoclast differentiation markers M-CSF and RANKL (Saos-2; 24 hours, FIG. 15, RANKL solvent versus CpdA p>0.05): does not stimulate the expression
Expression of OPG (Saos-2; 24 hours, FIG. 15, solvent versus CpdA p>0.05): does not down-regulate the expression of OPG
Expression of pro-inflammatory mediators (anti-inflammatory effect) (Saos-2; TNF 2000 U/ml 6 hours, FIG. 16): anti-inflammatory effect
cytotoxicity at 24 h ([3]; 10^−4 M, 24 hours, FIG. 5A): 20%
cytotoxicity at 48 h ([3]; 10^−4 M, 48 hours, FIG. 5B): 60%
cytotoxicity ([3]; 10^−5 M, 24 hours and 48 hours, FIGS. 5A and 5B): ≤ 10%
